# Laboratory results taken from EP4389156A1, “RA[…] LIGAND COMPOUNDS AND PRECURSORS THEREOF” (Technische Universität München, priority 2022, dated 2024).
# What was measured:
# [1] = Lipophilicity (logD7.4), shake-flask method; assay type: physicochemical; settings: n-octanol/PBS (pH 7.4), n = 8, mean ± SD
# Protocol: The lipophilicity of ^99mTc-labeled PSMA ligands, expressed as distribution coefficient (logD7.4), was determined using the shake-flask method. A solution of approximately 1 MBq of radioligand in 1 mL of a 1:1 mixture of PBS (pH = 7.4) and n-octanol (n = 8) was vortexed vigorously for 3 min. After centrifugation at 9000 rpm for 5 min aliquots of both phases (200 µL n-octanol, 50 µL PBS) were collected and the activity was quantified in a γ-counter. logD7.4 values were calculated as decadic logarithm of the activity concentration ratio between the n-octanol phase and the aqueous phase. Data are given as mean ± standard deviation (SD). Binding to human plasma was determined by incubation of radioligands in human plasma (2 nM concentration, 37 °C for 30 min) and subsequent ultrafiltration (250 µL aliquots, 3200 rpm, 40 min) in Centrifree® ultrafiltration devices (Merck Millipore, Cork, Ireland). The fraction bound to human plasma proteins was calculated as the ratio of unfiltered activity and the total activity in the ultrafiltration device. Measurements were performed in three independent experiments, each with two replicates (n = 6, data are given as mean ± SD). All values were corrected for non-specific binding (control experiments in PBS).
# LNCaP cells = experiment: PSMA-mediated internalization into LNCaP cells; assay type: cell-based; settings: 1 h
# Protocol: Competitive binding studies were carried out in analogy to a previously reported procedure. As a modification the non-radiolabeled standard competitor (((S)-1-carboxy-5-(4-(iodo)benzamido)pentyl)carbamoyl)-L-glutamic acid (IBA-KuE) was applied in increasing concentrations (10^-5 - 10^-11 M/well, n = 3 each) whereas the novel PSMA-binding compounds of interest were applied as ^99mTc-labeled radioligands (0.2 nM/well). In this inversed experimental approach, higher values correspond to higher affinities and are referred to as inverse IC50. Poly-L-lysine coated 24-well plates were used (n = 3). Data are given as mean ± SD. To determine the cellular uptake of the ^99mTc-labeled PSMA ligands into LNCaP cells by means of PSMA-mediated internalization at 1 h, a previously reported protocol was applied with assay concentrations of 1.0 nM and 0.2 nM for ^99mTc-labeled PSMA ligands and the reference compound [^125I]IBA-KuE, respectively. Data are corrected for non-specific binding and normalized to the specific internalization of the reference. Results are given as mean ± SD.
smiles,measurement,setting,value
CC(C)(C)[Si](O)(c1ccc(C(=O)NC[C@@H](NC(=O)[C@@H](CCC(=O)O)NC(=O)C(CNCCN)CNCCN)C(=O)N[C@H](CCCCNC(=O)CCC(=O)NCCC[C@@H](NC(=O)CC[C@H](NC(=O)N[C@@H](CCC(=O)O)C(=O)O)C(=O)O)C(=O)O)C(=O)O)cc1)C(C)(C)C.[O]=[99Tc+]=[O] [[^99mTc]Tc-N4-PSMA-12],logD7.4,[1],-3.35 ± 0.05
same,internalization (% IBA-KuE),"LNCaP cells; 37°C, n = 3, as percentage of reference [125I]IBA-KuE, mean ± SD",311 ± 16%
same,fold higher internalization than [^99mTc]Tc-N4-PSMA-13,LNCaP cells; relative to [^99mTc]Tc-N4-PSMA-13,1.9 fold
same,fold higher internalization than [^99mTc]Tc-N4-PSMA-21,LNCaP cells; relative to [^99mTc]Tc-N4-PSMA-21,1.7 fold
same,fold higher internalization than [^99mTc]Tc-PSMA-I&S,LNCaP cells; relative to [^99mTc]Tc-PSMA-I&S,1.3 fold
